Values of other authors in PMC9605497, “Potential of Epidermal Growth Factor-like Peptide from the Sea Cucumber Stichopus horrens to Increase the Growth of Human Cells: In Silico Molecular Docking Approach” (Marine Drugs, 2022).

How the values were obtained:
EGFR = settings: SPR and AFM, experimental; ref [41] Kuo et al.; read-out: dissociation constant (Kd) of EGF and EGFR complex; cited from earlier work
Text: The values are different because docking is based on the scoring functions used. […] A lower Kd value means dissociation occurs at a slow rate and the binding affinity (Ka) between these ...

carcinoma cells = settings: 10 nM EGF; ref [75] Clark et al.; cited from earlier work
Method: (§1) The rationale of testing peptide concentrations at 10 nM was based on a study done by Clark et al.. In the study, the EGFR expression in carcinoma cells was prolonged for 10 h when 10 nM of EGF was exerted, as compared to only 4 h of EGFR expression in 0.4 nM EGF. This is supported by another experiment by Zhao et al. where cell proliferation of CHO cells can only be induced when exerted with EGF concentrations below 0.1 ng/mL. In contrast, cell proliferation at higher EGF concentrations (1 to 100 ng/mL) was suppressed. The process of EGF binding to its receptor and the internali ...

CHO cells = settings: ref [76] Zhao et al., cited from earlier work
Method: as §1

HeLa cells = settings: ref [77]; cited from earlier work
Method: as §1

human skin model = settings: 50 nM, compared to 0.1 nM and 10 nM EGF; ref [18]; cited from earlier work
Text: Despite these nutritional properties that could be indirectly associated with the wound healing benefit of this marine organism, the full potential of sea cucumber as a source of marine therapeutic product remains unexplored and limited to the previous approaches of specific metabolite identification. Among the prospective molecules to be investigated are growth factors and cytokines, which are examples of important mitogens that ensure an effective wound healing process. Several mitogens are involved directly as growth factors in cell proliferation such as epidermal growth factor (EGF) ...

receptors (EGFR) = settings: 0.156 to 5 ng/mL biotinylated EGF; ref [46] King et al.; cited from earlier work
Method: The increasing binding activity was determined by both the concentration of biotinylated EGF tested and the number of cells used. In this study, inoculating about 80,000 cells gives a reproducible result as opposed to when lower number of cells was used. Increasing the ligand concentration could improve assessment of the binding signal of Sh-EGFl-1 peptide with human EGFR s ...

Substance	Kd (EGFR) [nM]	duration of EGFR expression (carcinoma cells) [h]	cell proliferation at higher EGF concentrations (CHO cells; 1 to 100 ng/mL)	EGF concentration inducing cell proliferation (CHO cells; CHO cells)	time for EGF binding and internalization of receptor (HeLa cells)	DNA synthesis (human skin model)	absorbance reading (receptors (EGFR))
Human EGF: human EGF (chain C) of crystal structure 1IVO; also EGF of cited literature (MNSDSECPLSHDGYCLHDGVCMYIEALDKYACNCVVGYIGERCQYRDLKWWELR; biotin (conjugated with NHS-biotin; sites not stated))	~177	10	suppressed	below 0.1 ng/mL	less than 30 min	maximum increase of DNA synthesis	–
biotinylated EGF: biotinylated EGF used by King et al.	–	–	–	–	–	–	consistent increases in the absorbance reading
